Results: patent US6720346B2, “Thiazole benzamide derivatives and pharmaceutical compositions for inhibiting cell proliferation” (Agouron Pharmaceuticals, Inc., priority 2001, dated 2004)
Where a name gives a salt, the structure may show the parent alone.

melting point: 275 to 290 °C (dec.)
SMILES: CN(C)CC(C)(C)NC(=O)c1ccc(Nc2nc(N)c(C(=O)c3c(F)cccc3F)s2)cc1 (as salt: hydrochloride) [Example A61, 4-[4-Amino-5-(2,6-difluoro-benzoyl)-thiazol-2-ylamino]-N-(2-dimethylamino-1,1-dimethyl-ethyl)-benzamide Dihydrochloride]
